The source of these data is publication PMC11879040, “Advancing systemic toxicity risk assessment: Evaluation of a NAM-based toolbox approach” (Toxicological Sciences, 2024).

The test system of data set [1] is Gamma-aminobutyric acid receptor subunit alpha-1 BZD site, GABRA1A (r). The class given is binding, rat.
For data set [2] the following is noted: human.
For data set [3], the target named is T1, Progesterone receptor, PGR (h) (Homo sapiens, UniProt P06401).
T1 sequence (P06401 1-933): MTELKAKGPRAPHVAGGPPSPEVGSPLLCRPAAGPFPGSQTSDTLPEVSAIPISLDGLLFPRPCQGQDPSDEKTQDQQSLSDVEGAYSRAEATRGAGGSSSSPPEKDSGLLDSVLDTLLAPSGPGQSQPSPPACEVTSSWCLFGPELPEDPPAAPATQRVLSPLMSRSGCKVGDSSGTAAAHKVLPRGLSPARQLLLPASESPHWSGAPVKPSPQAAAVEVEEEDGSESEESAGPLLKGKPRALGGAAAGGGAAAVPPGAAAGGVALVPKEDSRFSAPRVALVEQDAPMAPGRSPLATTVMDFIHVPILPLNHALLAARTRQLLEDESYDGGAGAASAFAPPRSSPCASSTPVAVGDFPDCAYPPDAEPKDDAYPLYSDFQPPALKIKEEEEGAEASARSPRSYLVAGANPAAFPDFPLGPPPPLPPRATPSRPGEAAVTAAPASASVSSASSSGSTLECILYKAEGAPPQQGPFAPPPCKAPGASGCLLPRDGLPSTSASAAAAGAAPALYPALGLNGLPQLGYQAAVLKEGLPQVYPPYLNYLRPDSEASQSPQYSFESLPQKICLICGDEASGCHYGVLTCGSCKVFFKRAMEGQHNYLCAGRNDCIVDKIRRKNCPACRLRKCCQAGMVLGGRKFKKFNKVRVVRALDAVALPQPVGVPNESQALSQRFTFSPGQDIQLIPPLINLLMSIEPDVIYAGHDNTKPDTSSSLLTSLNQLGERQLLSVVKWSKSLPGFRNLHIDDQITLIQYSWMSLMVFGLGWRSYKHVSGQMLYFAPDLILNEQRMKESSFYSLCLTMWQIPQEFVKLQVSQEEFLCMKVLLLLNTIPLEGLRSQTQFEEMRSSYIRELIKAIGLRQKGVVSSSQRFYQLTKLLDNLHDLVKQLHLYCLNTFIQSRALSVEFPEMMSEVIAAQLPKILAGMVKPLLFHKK
Nature of the data set: biochemical. The class given is biochemical.

For data set [4], the system named is Sodium channel protein type 5 subunit alpha (site 2), SCN5A (r). The class given is binding, rat.
The subject of data set [5] is HepG2 cells. Nature of the data set: High-throughput transcriptomics (HTTr, TempO-Seq), HepG2, 24 h. The class given is cell-based, human. Particulars: HepG2; for pod_httr_bifrost PoD: HTTr BIFROST PoD; for podl_path_minbmd PoD: HTTr minimum pathway BMD(L). As to the method:
(§1) HepG2, HepaRG, and MCF7 cells were treated with each compound for 24 h across a dose range of 7 concentrations and lysed using TempO-Seq lysis buffer (BioSpyder Technologies, proprietary kit, see [Middleton et al. 2022] for method details). Sequencing was performed using TempO-Seq (BioClavis) version 2 of the human whole transcriptome panel and analyzed as described previously in Middleton et al.

Another data set relates to HepaRG cells. Nature of the data set: High-throughput transcriptomics (HTTr, TempO-Seq), HepaRG, 24 h. The class given is cell-based, human. The settings on record: for pod_httr_bifrost PoD / podl_path_minbmd PoD: HepaRG; for pod_httr_bifrost PoD: HTTr BIFROST PoD; for podl_path_minbmd PoD: HTTr minimum pathway BMD(L). As to the method: as §1
For data set [6], the system named is Glutamate receptor ionotropic NMDA 1 non-selective, GRIN1 (r). The settings on record: IPP screening at 100 uM; control CGS 19755.
The next data set concerns Tubulin (r). Nature of the data set: IPP Tubulin binding. Particulars: 100 uM; ligand/control Colchicine. More on the design: species or system rat.
Data set [7] concerns Potassium Voltage-Gated Channel Kv non-selective, KCNQ1 (r). Nature of the data set: IPP KCNQ1 binding (antagonist radioligand). Details: species or system rat.
The test system of another data set is MCF7 cells. Nature of the data set: High-throughput transcriptomics (HTTr, TempO-Seq), MCF7, 24 h. The class given is cell-based, human. Particulars: MCF-7; for pod_httr_bifrost PoD: HTTr BIFROST PoD; for podl_path_minbmd PoD: HTTr minimum pathway BMD(L). The procedure: as §1
Data set [8] relates to HepG2 cells. Nature of the data set: Cell stress panel (CSP), 24 h, 8 concentrations, BIFROST global PoD. The class given is cell-based. The settings on record: HepG2; cell stress panel PoD. As to the method: Compounds were tested using the previously developed cell stress panel ([Hatherell et al. 2020]) and the expanded biomarker panel outlined in Middleton et al. HepG2 cells were treated with all compounds for 24 h across 8 concentrations prior to biomarker analysis. The same plate layout and number of replicates (3 biological and 2 technical) were used as previously for each assay within the panel.

Data set [9] has as its target T2, Adenosine receptor A2a, ADORA2A (h) (Homo sapiens, UniProt P29274).
T2 construct: purchased Eurofins Cerep (SafetyScreen44-based IPP panel)
Nature of the data set: IPP ADORA2A binding (agonist radioligand). Particulars: IPP screening at 100 uM; control NECA.

In data set [10] the test system is Thyroid hormone receptor alpha, THRA (h). Nature of the data set: IPP THRA coactivator recruitment (agonist). The class given is biochemical, human. Particulars: 100 uM; agonist; T3; * denotes assay interference (2-Amino-6-chloro-4-nitrophenol, HC Red 3).
For another data set, the system named is mouse. Particulars: cited from earlier work.
Data set [11] addresses Potassium voltage-gated channel subfamily H member 2 hERG, KCNH2 (h) (Homo sapiens, UniProt Q12809).
Data set [12] concerns the target T3, Constitutive androstane receptor CAR, NR1I3 (h) (Homo sapiens, UniProt Q14994).
T3 sequence (Q14994 1-352): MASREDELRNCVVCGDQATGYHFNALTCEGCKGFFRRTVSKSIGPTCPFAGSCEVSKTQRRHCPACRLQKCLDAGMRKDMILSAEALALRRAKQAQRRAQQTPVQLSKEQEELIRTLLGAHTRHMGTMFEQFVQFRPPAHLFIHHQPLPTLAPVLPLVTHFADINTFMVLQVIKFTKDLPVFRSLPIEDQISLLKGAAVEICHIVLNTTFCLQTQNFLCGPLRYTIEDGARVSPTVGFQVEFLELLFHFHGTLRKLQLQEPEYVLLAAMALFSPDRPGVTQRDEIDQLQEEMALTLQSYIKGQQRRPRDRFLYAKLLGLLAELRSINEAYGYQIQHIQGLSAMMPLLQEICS
The class given is biochemical.

The target of data set [13] is T4, Pregnane X receptor PXR, NR1I2 (h) (Homo sapiens, UniProt O75469).
T4 sequence (O75469 1-434): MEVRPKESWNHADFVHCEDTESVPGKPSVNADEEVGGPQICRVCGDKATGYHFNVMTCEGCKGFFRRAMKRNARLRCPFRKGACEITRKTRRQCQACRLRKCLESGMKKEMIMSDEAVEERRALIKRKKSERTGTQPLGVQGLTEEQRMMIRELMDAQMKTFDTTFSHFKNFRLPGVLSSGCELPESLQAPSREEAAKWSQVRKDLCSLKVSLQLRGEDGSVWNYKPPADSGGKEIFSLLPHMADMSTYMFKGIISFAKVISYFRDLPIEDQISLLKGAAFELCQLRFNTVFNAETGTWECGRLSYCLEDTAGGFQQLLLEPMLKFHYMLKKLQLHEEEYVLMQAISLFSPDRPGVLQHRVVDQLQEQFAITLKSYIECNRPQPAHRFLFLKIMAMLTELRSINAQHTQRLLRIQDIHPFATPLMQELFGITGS

The conditions of data set [14]: human. This is another data set of the same source.
Data set [15] addresses vitamin K epoxide reductase enzyme (VKORC1). Particulars: ref Bevans et al. 2013, cited from earlier work.
The conditions of data set [16]: PBK input, level L2; ref [10]; cited from earlier work.
A short description of data set [17]: PBK model plasma Cmax estimate (Gastroplus 9.8; levels L1, L2, L3). More on the design: species or system human. Particulars: therapeutic uses.
The target of data set [18] is Voltage-dependent L-type Ca2+ channel (dihydropyridine site), CACNA1C (r) (Rattus norvegicus, UniProt P22002). The class given is binding. The settings on record: IPP screening at 100 uM; control nitrendipine.
Chain of Voltage-dependent L-type Ca2+ channel (dihydropyridine site), CACNA1C (r) (P22002 whole entry): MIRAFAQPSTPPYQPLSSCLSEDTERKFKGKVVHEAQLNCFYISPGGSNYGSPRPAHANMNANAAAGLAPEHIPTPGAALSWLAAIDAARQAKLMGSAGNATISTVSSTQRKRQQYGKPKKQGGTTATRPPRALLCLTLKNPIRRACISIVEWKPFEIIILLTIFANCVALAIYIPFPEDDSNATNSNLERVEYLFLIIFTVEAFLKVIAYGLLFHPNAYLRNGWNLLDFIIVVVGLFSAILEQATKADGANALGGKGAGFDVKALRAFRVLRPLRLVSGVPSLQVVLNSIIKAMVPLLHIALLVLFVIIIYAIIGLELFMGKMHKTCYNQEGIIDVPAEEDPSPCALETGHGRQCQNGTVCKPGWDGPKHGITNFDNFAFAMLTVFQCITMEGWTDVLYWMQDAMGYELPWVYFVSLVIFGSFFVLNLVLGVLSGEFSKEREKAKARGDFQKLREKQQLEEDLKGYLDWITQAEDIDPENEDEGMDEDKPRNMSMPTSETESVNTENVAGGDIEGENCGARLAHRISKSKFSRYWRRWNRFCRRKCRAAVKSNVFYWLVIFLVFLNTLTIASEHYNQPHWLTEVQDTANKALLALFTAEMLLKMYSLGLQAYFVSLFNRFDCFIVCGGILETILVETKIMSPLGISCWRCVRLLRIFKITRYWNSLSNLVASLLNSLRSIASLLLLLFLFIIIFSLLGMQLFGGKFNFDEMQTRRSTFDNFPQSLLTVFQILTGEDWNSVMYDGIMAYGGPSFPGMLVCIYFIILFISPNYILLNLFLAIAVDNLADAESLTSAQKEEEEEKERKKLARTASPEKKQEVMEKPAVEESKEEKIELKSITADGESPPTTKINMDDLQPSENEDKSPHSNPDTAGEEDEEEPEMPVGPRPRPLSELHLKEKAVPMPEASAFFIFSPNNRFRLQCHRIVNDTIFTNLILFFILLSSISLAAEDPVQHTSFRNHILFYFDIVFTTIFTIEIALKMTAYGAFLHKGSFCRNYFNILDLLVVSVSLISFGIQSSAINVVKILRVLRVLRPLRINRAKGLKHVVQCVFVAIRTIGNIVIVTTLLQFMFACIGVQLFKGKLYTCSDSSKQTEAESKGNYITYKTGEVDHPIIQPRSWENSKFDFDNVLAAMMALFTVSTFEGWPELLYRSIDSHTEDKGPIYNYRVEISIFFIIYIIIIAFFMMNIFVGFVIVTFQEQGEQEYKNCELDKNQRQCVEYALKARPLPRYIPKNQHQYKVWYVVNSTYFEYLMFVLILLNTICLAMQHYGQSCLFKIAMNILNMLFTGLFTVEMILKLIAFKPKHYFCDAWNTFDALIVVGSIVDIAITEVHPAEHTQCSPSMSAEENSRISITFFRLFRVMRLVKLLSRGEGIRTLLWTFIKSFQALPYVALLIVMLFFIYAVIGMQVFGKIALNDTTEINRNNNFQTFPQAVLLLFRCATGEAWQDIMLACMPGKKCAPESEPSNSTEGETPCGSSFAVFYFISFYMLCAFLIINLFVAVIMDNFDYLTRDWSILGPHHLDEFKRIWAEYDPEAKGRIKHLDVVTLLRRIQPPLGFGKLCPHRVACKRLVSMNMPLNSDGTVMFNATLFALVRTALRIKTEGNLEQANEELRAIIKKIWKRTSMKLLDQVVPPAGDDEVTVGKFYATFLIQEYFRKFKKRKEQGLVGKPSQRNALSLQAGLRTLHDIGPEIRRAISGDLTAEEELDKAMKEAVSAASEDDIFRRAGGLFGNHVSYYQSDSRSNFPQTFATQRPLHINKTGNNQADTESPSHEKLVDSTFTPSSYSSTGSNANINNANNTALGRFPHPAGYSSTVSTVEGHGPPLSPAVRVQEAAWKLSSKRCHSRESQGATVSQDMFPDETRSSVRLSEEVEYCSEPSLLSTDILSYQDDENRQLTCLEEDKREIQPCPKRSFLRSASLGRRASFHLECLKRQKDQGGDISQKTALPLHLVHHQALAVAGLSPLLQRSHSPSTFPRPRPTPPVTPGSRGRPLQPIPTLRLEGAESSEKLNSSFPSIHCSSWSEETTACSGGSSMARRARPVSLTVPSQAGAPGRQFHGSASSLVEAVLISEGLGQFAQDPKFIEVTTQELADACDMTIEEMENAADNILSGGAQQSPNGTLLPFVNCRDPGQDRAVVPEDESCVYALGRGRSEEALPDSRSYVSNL
For data set [19] the following is noted: human, cited from earlier work.
Where [20] appears, read: IPP screening at 100 uM, control diazepam.
[21] abbreviates: IPP screening at 100 uM, control veratridine.
Where [22] appears, read: PO 15 mg, tablet, 8 male, Fasted, calibration, ref Stirling Y, et al. British Journal of Haematology (1982) 51: 37-46.

SMILES strings stand for the structures. Like-named read-outs stand apart in the source and are kept apart here.

T2 sequence (P29274 whole entry): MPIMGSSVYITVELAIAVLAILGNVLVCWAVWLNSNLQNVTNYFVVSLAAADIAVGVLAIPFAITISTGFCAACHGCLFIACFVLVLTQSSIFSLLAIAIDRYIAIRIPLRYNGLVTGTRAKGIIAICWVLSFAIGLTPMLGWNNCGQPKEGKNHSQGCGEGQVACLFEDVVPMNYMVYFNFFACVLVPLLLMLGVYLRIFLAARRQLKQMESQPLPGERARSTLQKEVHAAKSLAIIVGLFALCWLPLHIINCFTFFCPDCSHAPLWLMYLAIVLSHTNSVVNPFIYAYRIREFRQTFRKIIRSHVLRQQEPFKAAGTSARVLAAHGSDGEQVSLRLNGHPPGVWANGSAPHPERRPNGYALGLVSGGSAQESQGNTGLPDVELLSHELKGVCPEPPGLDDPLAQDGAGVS
Chain of Potassium voltage-gated channel subfamily H member 2 hERG, KCNH2 (h) (Q12809 whole entry): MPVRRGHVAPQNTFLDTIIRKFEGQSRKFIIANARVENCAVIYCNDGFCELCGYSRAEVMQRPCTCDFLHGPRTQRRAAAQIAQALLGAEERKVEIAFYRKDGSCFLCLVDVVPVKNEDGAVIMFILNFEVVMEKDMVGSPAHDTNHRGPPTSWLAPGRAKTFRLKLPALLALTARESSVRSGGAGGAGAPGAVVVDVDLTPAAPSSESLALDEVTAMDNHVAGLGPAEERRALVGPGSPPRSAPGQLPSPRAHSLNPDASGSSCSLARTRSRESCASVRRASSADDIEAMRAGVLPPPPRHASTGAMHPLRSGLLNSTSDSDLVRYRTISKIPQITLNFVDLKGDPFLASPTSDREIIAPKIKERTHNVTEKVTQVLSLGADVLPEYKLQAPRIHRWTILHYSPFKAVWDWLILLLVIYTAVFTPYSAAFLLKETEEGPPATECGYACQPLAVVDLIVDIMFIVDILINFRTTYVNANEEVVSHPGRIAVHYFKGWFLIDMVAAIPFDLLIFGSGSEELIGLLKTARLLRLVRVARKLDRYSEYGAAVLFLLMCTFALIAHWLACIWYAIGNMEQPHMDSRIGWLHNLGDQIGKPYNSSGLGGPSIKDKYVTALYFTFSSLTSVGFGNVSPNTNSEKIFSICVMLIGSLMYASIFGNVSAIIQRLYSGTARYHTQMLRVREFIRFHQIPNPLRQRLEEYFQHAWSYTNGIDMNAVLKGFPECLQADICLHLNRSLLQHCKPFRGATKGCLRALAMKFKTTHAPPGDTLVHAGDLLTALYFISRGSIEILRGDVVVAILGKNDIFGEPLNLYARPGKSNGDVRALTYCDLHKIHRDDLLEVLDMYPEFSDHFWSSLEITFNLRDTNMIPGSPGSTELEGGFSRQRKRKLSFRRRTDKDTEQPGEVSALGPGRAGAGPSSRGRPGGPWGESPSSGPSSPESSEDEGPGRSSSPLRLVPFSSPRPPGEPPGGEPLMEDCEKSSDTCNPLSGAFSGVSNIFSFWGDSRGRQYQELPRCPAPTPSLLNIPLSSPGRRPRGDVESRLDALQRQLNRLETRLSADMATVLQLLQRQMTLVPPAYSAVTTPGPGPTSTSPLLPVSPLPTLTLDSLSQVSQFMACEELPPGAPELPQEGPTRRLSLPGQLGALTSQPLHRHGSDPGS

One may read the EC50 as the midpoint of the concentration-response curve. A low value points to an effect from little substance. As for `O=P1(N(CCCl)CCCl)NCCCO1` (stereo not drawn) [Cyclophosphamide, 2-[Bis(2-chloroethyl)amino]-1,3,2lambda~5~-oxazaphosphinan-2-one], the Specific binding in data set [1] is 19.4%; in data set [4], 12.4%; in data set [6], 6.8%; in data set [7] it was 17.5%; in data set [9] it was 15.0%. Besides, the risk in data set [2] amounted to 1. The compound further yielded an EC50 in data set [3] of over 300 µM. The “pod_httr_bifrost PoD” value with HepG2 cells [5] is on record as 118.124 µM; with HepaRG cells it was 7.071 µM; in the data set on MCF7 cells, 0.08892 µM. Moreover, the figures for the “podl_path_minbmd PoD” value in the data set with HepG2 cells [5], in the data set with HepaRG cells and in the data set with MCF7 cells were 783.625 µM, 31.838 µM and 210.107 µM, respectively. Further, the “IPP screening %, Specific binding” value in the data set on Tubulin (r) was -4.0%. The “pod_cell_stress PoD” value in the data set on HepG2 cells [8] was 3.329 µM. In addition, the “IPP screening %, Coactivator recruitment” value in data set [10] is listed as -1.0%. In addition, the “PoD (NOAEL)” value in the data set on mouse (mouse, 42 days, developmental neurotox study, ref ToxRefDB/Paul-Friedman et al. (2020)/regulatory opinions) is given as 45 mg/kg bw/day.

As for `Nc1ccc(NCCO)c([N+](=O)[O-])c1` [HC Red 3, 2-(4-Amino-2-nitroanilino)ethan-1-ol], the Specific binding in [1] (setting [20]) was 16.3%; in [4] (setting [21]), 38.7%; in data set [6], 0.4%; in data set [7] (IPP screening at 100 uM, control α-dendrotoxin), -2.7%; in [9], 18.0%. For the same compound, the risk in data set [2] turned out to be 0. Moreover, the “IPP screening %, Specific binding” value was 16.3% in [11] (100 uM, [3H] Dofetilide, control Terfenadine) and -13.0% with Tubulin (r). The “IPP Dose Response PoD: CAR antagonist effect” value in [12] was “[29.7,46.9]”. The “IPP Dose Response PoD: PXR antagonist” value in data set [13] was “[4.11, 6.71]”. Besides, in the data set on HepG2 cells [8], the “pod_cell_stress PoD” value was determined as 1.583 µM. Also, the “IPP screening %, Coactivator recruitment” value in data set [10] is reported as 628.0* %. For the same compound, in the data set on mouse (ref SCCS), the “NOAEL before adjustment for 5 day dosing regimen” value is given as “NOAEL of 125 mkd adjusted for 5 day dosing regimen. 90 mkd used as critical PoD by SCCS”.

For orientation: IC50 means the point on the concentration scale where inhibition reaches its midpoint. One may read the Cmax as the maximum level reached in the sampled fluid or tissue. On to `CC(=O)CC(c1ccccc1)c1c([O-])c2ccccc2oc1=O.[Na+]` (stereo not drawn) [Warfarin, Sodium 2-oxo-3-(3-oxo-1-phenylbutyl)-2H-1-benzopyran-4-olate], for which the Specific binding in data set [1] (setting [20]) is 0.6%; in [4] (setting [21]) it was 0.7%; in data set [18], -1.9%; in data set [6] it was 7.9%; in data set [7], 7.0%; in [9] it was -14.2%. In data set [14], the “Intrinsic Liver Clearance” value was determined as 14.41 L/h. Besides, the IC50 in data set [15] (read-out: IC50 on the VKORC1 enzyme, lower end of literature range) is 0.0247 µM; in data set [15] (read-out: IC50 on the VKORC1 enzyme, upper end of literature range), 4 µM. For the same compound, the “IPP screening %, Specific binding” value was determined as 10.1% in data set [11] (human) and 3.0% in the data set on Tubulin (r). Besides, the Fup in data set [16] is recorded as 2%. Also, the “pod_httr_bifrost PoD” value in the data set on HepG2 cells [5] worked out at 14.2833 µM; in the data set with HepaRG cells, 13.5544 µM; in the data set with MCF7 cells it was 19.7041 µM. Also, the “podl_path_minbmd PoD” value worked out at 164.109 µM in the data set on HepG2 cells [5], 258.74 µM in the data set on HepaRG cells and 167.012 µM in the data set with MCF7 cells. The “HepaRG minimum pathway BMDL” value with HepaRG cells (BMDExpress2, highest of the chemical's PoDs) was determined as 259 µM. Moreover, the “HepaRG BIFROST global PoD” value with HepaRG cells (lowest of the chemical's PoDs) was 13.6 µM. The “underprediction of the L3 result at L2 (Cmax)” value in [17] is at least 5 fold. Further, the “pod_cell_stress PoD” value in the data set on HepG2 cells [8] is 13.7726 µM. Further, the “Reported AUC0-t” value in data set [19] (setting [22]) is 54300 ng·h/mL. Further, the Reported cmax in data set [19] (setting [22]) is 1.305 µg/mL. Moreover, the Reported tmax in [19] (setting [22]) was 1 h. For the same compound, the peak concentration (Cmax) in [19] (read-out: typical Cmax reported in the literature, ref literature, not specified) is 0.6 to 6 µM. Also, the “IPP screening %, Coactivator recruitment” value in data set [10] is given as -2.0%.
